# Source: ChEMBL document CHEMBL2407067, “Pyridone-conjugated monobactam antibiotics with gram-negative activity” (J Med Chem, 2013)
# Legend:
# Pseudomonas aeruginosa [1] = assay: microbe, parasite or virus in culture; conditions: 1091-05
# Description: Antibacterial activity against Pseudomonas aeruginosa 1091-05 by broth microdilution method
# Klebsiella pneumoniae [2] = assay: Antibacterial activity against Klebsiella pneumoniae 1000-02 by broth microdilution method; format: functional
# Klebsiella pneumoniae [3] = assay: Antibacterial activity against Klebsiella pneumoniae 1487-07 by broth microdilution method; format: functional
# Acinetobacter baumannii = assay: Antibacterial activity against Acinetobacter baumannii AB-3167 by broth microdilution method; format: functional
# Pseudomonas aeruginosa [4] = assay: Antibacterial activity against Pseudomonas aeruginosa 1042-06 by broth microdilution method; format: functional
# [5] = Inhibition of PBP1a in Pseudomonas aeruginosa ATCC 27853 after 20 mins by fluorescence assay
# [6] = Inhibition of PBP3 in Pseudomonas aeruginosa ATCC 27853 after 20 mins by fluorescence assay
# [7] = Inhibition of PBP2 in Pseudomonas aeruginosa ATCC 27853 after 20 mins by fluorescence assay
# [8] = Inhibition of PBP1b in Pseudomonas aeruginosa ATCC 27853 after 20 mins by fluorescence assay
# Klebsiella pneumoniae [9] = assay: Antibacterial activity against Klebsiella pneumoniae expressing ESBL by broth microdilution method; format: functional
# Acinetobacter sp. = assay: Antibacterial activity against Acinetobacter spp. by broth microdilution method; format: functional
# Klebsiella pneumoniae [10] = assay: Antibacterial activity against Klebsiella pneumoniae expressing KPC by broth microdilution method; format: functional
# Pseudomonas aeruginosa [11] = assay: Antibacterial activity against Pseudomonas aeruginosa expressing metallo-beta-lactamase by broth microdilution method; format: functional
# Escherichia coli [12] = assay: Antibacterial activity against Escherichia coli expressing ESBL by broth microdilution method; format: functional
# Escherichia coli [13] = assay: Antibacterial activity against Escherichia coli expressing CTX-M by broth microdilution method; format: functional
# Escherichia coli [14] = assay: Antibacterial activity against Escherichia coli expressing defined beta-lactamase by broth microdilution method; format: functional
# Pseudomonas aeruginosa [15] = assay: Antibacterial activity against Pseudomonas aeruginosa from cystic fibrosis patients by broth microdilution method; format: functional
# Klebsiella pneumoniae [16] = assay: Antibacterial activity against Klebsiella pneumoniae expressing defined beta-lactamase by broth microdilution method; format: functional
Structure (SMILES),MIC (Pseudomonas aeruginosa [1]) [µg/mL],MIC (Klebsiella pneumoniae [2]) [µg/mL],MIC (Klebsiella pneumoniae [3]) [µg/mL],MIC (Acinetobacter baumannii) [µg/mL],MIC (Pseudomonas aeruginosa [4]) [µg/mL],also measured
Nc1nc(/C(=N/OCc2nnn[nH]2)C(=O)N[C@@H]2C(=O)N(S(=O)(=O)O)[C@@H]2CNC(=O)NCc2cc(=O)c(O)cn2O)cs1,0.5,8,32,0.5,16,–
Nc1nc(/C(=N/Oc2ccccc2)C(=O)N[C@@H]2C(=O)N(S(=O)(=O)O)[C@@H]2CNC(=O)NCc2cc(=O)c(O)cn2O)cs1,0.5,> 64,> 64,0.5,16,–
Nc1nc(/C(=N/OC2CCCC2)C(=O)N[C@@H]2C(=O)N(S(=O)(=O)O)[C@@H]2CNC(=O)NCc2cc(=O)c(O)cn2O)cs1,1,8,32,1,16,–
Nc1nc(/C(=N/OCc2cscn2)C(=O)N[C@@H]2C(=O)N(S(=O)(=O)O)[C@@H]2CNC(=O)NCc2cc(=O)c(O)cn2O)cs1,1,16,16,1,> 64,–
Nc1nc(/C(=N/OCCO)C(=O)N[C@@H]2C(=O)N(S(=O)(=O)O)[C@@H]2CNC(=O)NCc2cc(=O)c(O)cn2O)cs1,0.5,32,32,0.5,16,–
CC(C)(O/N=C(\C(=O)N[C@@H]1C(=O)N(S(=O)(=O)O)[C@@H]1CNS(=O)(=O)NCc1cc(=O)c(O)cn1O)c1csc(N)n1)C(=O)O,1,–,32,1,16,–
CC(C)(O/N=C(\C(=O)N[C@@H]1C(=O)N(S(=O)(=O)O)[C@@H]1Cn1cc(-c2cc(=O)c(O)cn2O)nn1)c1csc(N)n1)C(=O)O,0.125,–,–,0.125,–,–
CC(C)(O/N=C(\C(=O)N[C@@H]1C(=O)N(S(=O)(=O)O)[C@@H]1CNc1cc(C(=O)NCc2cc(=O)c(O)cn2O)ccn1)c1csc(N)n1)C(=O)O,–,–,16,0.125,1,–
Nc1nc(/C(=N/OCC(=O)O)C(=O)N[C@@H]2C(=O)N(S(=O)(=O)O)[C@@H]2CNC(=O)NCc2cc(=O)c(O)cn2O)cs1,0.125,–,8,–,4,–
CC(C)C[C@H](O/N=C(\C(=O)N[C@@H]1C(=O)N(S(=O)(=O)O)[C@@H]1CNC(=O)NCc1cc(=O)c(O)cn1O)c1csc(N)n1)C(=O)O,1,–,1,1,16,–
Nc1nc(/C(=N/O[C@@H](Cc2ccccc2)C(=O)O)C(=O)N[C@@H]2C(=O)N(S(=O)(=O)O)[C@@H]2CNC(=O)NCc2cc(=O)c(O)cn2O)cs1,1,–,1,–,8,–
Nc1nc(/C(=N/OC2(C(=O)O)CCC2)C(=O)N[C@@H]2C(=O)N(S(=O)(=O)O)[C@@H]2CNC(=O)NCc2cc(=O)c(O)cn2O)cs1,–,–,0.5,0.125,1,IC50 [5]: 340 nM; IC50 [6]: 66 nM; IC50 [7]: > 300000 nM; IC50 [8]: 2460 nM
NCC[C@H](O)C(=O)N[C@@H]1C[C@H](N)[C@@H](O[C@H]2O[C@H](CN)[C@@H](O)[C@H](O)[C@H]2O)[C@H](O)[C@H]1O[C@H]1O[C@H](CO)[C@@H](O)[C@H](N)[C@H]1O [AMIKACIN],2,–,64,1,8,MIC50 (Klebsiella pneumoniae [9]): 4 µg/mL; MIC90 (Klebsiella pneumoniae [9]): 64 µg/mL; MIC50 (Acinetobacter sp.): 4 µg/mL; MIC90 (Acinetobacter sp.): > 64 µg/mL; MIC50 (Klebsiella pneumoniae [10]): 32 µg/mL; MIC90 (Klebsiella pneumoniae [10]): > 64 µg/mL; MIC50 (Pseudomonas aeruginosa [11]): > 64 µg/mL; MIC90 (Pseudomonas aeruginosa [11]): > 64 µg/mL; MIC50 (Escherichia coli [12]): 8 µg/mL; MIC90 (Escherichia coli [12]): 64 µg/mL; MIC50 (Escherichia coli [13]): 8 µg/mL; MIC90 (Escherichia coli [13]): 32 µg/mL; MIC50 (Escherichia coli [14]): 1 µg/mL; MIC90 (Escherichia coli [14]): 16 µg/mL; MIC50 (Pseudomonas aeruginosa [15]): 8 µg/mL; MIC90 (Pseudomonas aeruginosa [15]): > 64 µg/mL; MIC50 (Klebsiella pneumoniae [16]): 4 µg/mL; MIC90 (Klebsiella pneumoniae [16]): > 64 µg/mL
O=C(O)c1cn(C2CC2)c2cc(N3CCNCC3)c(F)cc2c1=O [CIPROFLOXACIN],–,–,–,0.06,64,MIC50 (Klebsiella pneumoniae [9]): 0.25 µg/mL; MIC50 (Acinetobacter sp.): 0.5 µg/mL; MIC90 (Acinetobacter sp.): > 64 µg/mL; MIC50 (Pseudomonas aeruginosa [11]): 32 µg/mL; MIC90 (Pseudomonas aeruginosa [11]): > 64 µg/mL; MIC50 (Escherichia coli [12]): > 64 µg/mL; MIC90 (Escherichia coli [12]): > 64 µg/mL; MIC90 (Escherichia coli [13]): > 64 µg/mL; MIC50 (Escherichia coli [14]): 0.03 µg/mL; MIC90 (Escherichia coli [14]): 0.06 µg/mL; MIC50 (Pseudomonas aeruginosa [15]): 2 µg/mL; MIC90 (Pseudomonas aeruginosa [15]): 16 µg/mL; MIC50 (Klebsiella pneumoniae [16]): 0.5 µg/mL
C[C@@H](O)[C@H]1C(=O)N2C(C(=O)O)=C(S[C@@H]3CN[C@H](C(=O)N(C)C)C3)[C@H](C)[C@H]12 [MEROPENEM],2,0.25,–,0.25,–,MIC50 (Klebsiella pneumoniae [9]): 0.03 µg/mL; MIC90 (Klebsiella pneumoniae [9]): 0.25 µg/mL; MIC50 (Acinetobacter sp.): 1 µg/mL; MIC90 (Acinetobacter sp.): 32 µg/mL; MIC50 (Klebsiella pneumoniae [10]): 32 µg/mL; MIC90 (Klebsiella pneumoniae [10]): > 64 µg/mL; MIC50 (Escherichia coli [12]): 0.03 µg/mL; MIC90 (Escherichia coli [12]): 0.06 µg/mL; MIC50 (Escherichia coli [13]): 0.03 µg/mL; MIC90 (Escherichia coli [13]): 0.06 µg/mL; MIC50 (Escherichia coli [14]): 0.03 µg/mL; MIC90 (Escherichia coli [14]): 0.06 µg/mL; MIC50 (Pseudomonas aeruginosa [15]): 1 µg/mL; MIC90 (Pseudomonas aeruginosa [15]): 16 µg/mL; MIC50 (Klebsiella pneumoniae [16]): 0.03 µg/mL; MIC90 (Klebsiella pneumoniae [16]): 0.25 µg/mL
